{"source": "paper PMC5419589", "about": "(Bioorganic & medicinal chemistry, 2016)", "key": {"[1]": {"system": "T. brucei brucei strain BF427", "assay": "T. brucei growth inhibition assay", "assay_type": "cell-based, Trypanosoma brucei brucei", "settings": "for activity on T. brucei cells (in words): T. brucei EC50 assay; for fold enhancement of potency with respect to compound 1: vs 1, T. brucei EC50; for fold reduction of potency compared to compound 2: vs 2, T. brucei EC50"}, "[2]": {"settings": "severe side effects of treatment; cited from earlier work"}, "[3]": {"assay": "Brain:plasma compound concentration measurements in mice", "assay_type": "in vivo", "settings": "following intraperitoneal injection in mice"}, "[4]": {"assay": "Mouse oral pharmacokinetics", "assay_type": "in vivo", "settings": "mice"}, "[5]": {"system": "T. brucei brucei (strain TREU667)", "assay": "Chronic", "assay_type": "in vivo, mouse", "settings": "for relapse with parasites in the blood / suppression of parasitemia during treatment phase: TREU667, 50 mg/kg twice a day oral day 21 to 34; for number of mice free of parasitemia/number of mice in the group: same dosing"}}, "data": [{"smiles": "COc1ccc(N(CCN)C(=O)c2ccc(Cl)cc2Cl)cc1.Cl", "note": "[Compound 8, N-(2-Aminoethyl)-2,4-dichloro-N-(4-methoxyphenyl)benzamide hydrochloride]", "values": [{"measurement": "activity on T. brucei cells (in words)", "setting": "[1]", "value": "eliminated activity"}]}, {"smiles": "Nc1nc(N)nc(Nc2ccc([As]3SCC(CO)S3)cc2)n1", "note": "(centres unmarked) [Melarsoprol]", "values": [{"measurement": "fatalities in patients", "setting": "[2]", "value": "3–10%"}]}, {"smiles": "O=C(c1ccc(Cl)cc1Cl)N(CCN1CCOCC1)c1ccc(Cl)cc1", "note": "[Compound 48, 2,4-Dichloro-N-(4-chlorophenyl)-N-[2-(morpholin-4-yl)ethyl] benzamide]", "values": [{"measurement": "activity on T. brucei cells (in words)", "setting": "[1]", "value": "inactive"}]}, {"smiles": "Cl.NCCN(C(=O)c1ccc(Cl)cc1Cl)c1ccc(Cl)cc1Cl", "note": "[Compound 12, N-(2-Aminoethyl)-2,4-dichloro-N-(2,4-dichlorophenyl)benzamide]", "values": [{"measurement": "fold enhancement of potency with respect to compound 1", "setting": "[1]", "value": "more than 2 fold"}]}, {"smiles": "Cl.NCCN(C(=O)c1ccc(Cl)cc1Cl)c1ccc(F)cc1", "note": "[Compound 1]", "values": [{"measurement": "permeability into brain tissue (in words)", "setting": "[3]", "value": "excellent permeability into brain tissue"}]}, {"smiles": "CCN(C(=O)c1ccc(Cl)cc1Cl)c1ccc(F)cc1", "note": "[Compound 45, 2,4-Dichloro-N-ethyl-N-(4-fluorophenyl)benzamide]", "values": [{"measurement": "activity on T. brucei cells (in words)", "setting": "[1]", "value": "eliminated anti-T. brucei activity"}, {"measurement": "EC50", "setting": "[1]; Trypanosoma brucei, 48 h, read-out: EC50, concentration required to inhibit growth by 50% of T. brucei brucei, strain BF427, 48H, AlamarBlue", "value": "> 10", "unit": "µM"}]}, {"smiles": "Cl.NCCN(C(=O)c1cccnc1C(F)(F)F)c1ccc(OCc2ccc(Cl)cc2)cc1", "note": "[Compound 68, N-(2-Aminoethyl)-N-{4-[(4-chlorophenyl)methoxy]phenyl}-2-(trifluoromethyl)pyridine-3-carboxamide hydrochloride]", "values": [{"measurement": "fold more active than 2-chloronicotinoyl (67)", "setting": "[1]; vs 67", "value": 10, "unit": "fold"}]}, {"smiles": "Cl.NCCN(C(=O)c1ccc(Cl)cc1Cl)c1cccc(Cl)c1", "note": "[Compound 11, N-(2-Aminoethyl)-2,4-dichloro-N-(3-chlorophenyl)benzamide hydrochloride]", "values": [{"measurement": "fold reduction of potency compared to compound 2", "setting": "[1]", "value": 10, "unit": "fold"}]}, {"smiles": "COc1ccccc1C(=O)N(CCN)c1ccc(Cl)cc1.Cl", "note": "[Compound 26, N-(2-Aminoethyl)-N-(4-chlorophenyl)-2-methoxybenzamide hydrochloride]", "values": [{"measurement": "times less active compared to 23, 24", "setting": "[1]; vs 23, 24", "value": "at least 5 fold"}, {"measurement": "times more potent than 4-methoxy (27)", "setting": "[1]; vs 27", "value": "at least 4 fold"}]}, {"smiles": "Cl.NCCN(C(=O)c1cc([N+](=O)[O-])ccc1Cl)c1ccc(Cl)cc1", "note": "[Compound 36, N-(2-Aminoethyl)-2-chloro-N-(4-chlorophenyl)-5-nitrobenzamide hydrochloride]", "values": [{"measurement": "times less potent than 2-chloro analogue 23", "setting": "[1]; vs 23", "value": 3, "unit": "fold"}]}, {"smiles": "O=C(c1ccc(Cl)cc1Cl)N(CCO)c1ccc(Cl)cc1", "note": "[Compound 49, 2,4-Dichloro-N-(4-chlorophenyl)-N-(2-hydroxyethyl)benzamide]", "values": [{"measurement": "activity on T. brucei cells (in words)", "setting": "[1]", "value": "inactive"}]}, {"smiles": "CC(=O)NCCN(C(=O)c1ccc(Cl)cc1Cl)c1ccc(Cl)cc1", "note": "[Compound 46, N-{2-[N-(4-Chlorophenyl)-1-(2,4-dichlorophenyl)formamido]ethyl}acetamide]", "values": [{"measurement": "activity on T. brucei cells (in words)", "setting": "[1]", "value": "eliminated anti-T. brucei activity"}]}, {"smiles": "Cl.NCCCN(C(=O)c1ccc(Cl)cc1Cl)c1ccc(Cl)cc1", "note": "[Compound 50, N-(3-Aminopropyl)-2,4-dichloro-N-(4-chlorophenyl)benzamide]", "values": [{"measurement": "fold reduction of potency compared to compound 2", "setting": "[1]", "value": 10, "unit": "fold"}]}, {"smiles": "CNCCN(C(=O)c1ccc(Cl)cc1Cl)c1ccc(Cl)cc1.Cl", "note": "[Compound 58, 2,4-Dichloro-N-(4-chlorophenyl)-N-[2-(methylamino)ethyl] benzamide hydrochloride]", "values": [{"measurement": "fold reduction of potency compared to compound 2", "setting": "[1]", "value": 5, "unit": "fold"}]}, {"smiles": "Cl.NCCN(C(=O)c1ccc(Cl)cc1Cl)c1ccc(Cl)cc1", "note": "[Compound 2, N-(2-Aminoethyl)-2,4-dichloro-N-(4-chlorophenyl)benzamide]", "values": [{"measurement": "fold enhancement of potency with respect to compound 1", "setting": "[1]", "value": 4, "unit": "fold"}]}, {"smiles": "CC(C)c1ccc(COc2ccc(N(CCN)C(=O)c3cccnc3C(F)(F)F)cc2)cc1.Cl", "note": "[Compound 73]", "values": [{"measurement": "oral bioavailability (in words)", "setting": "[4]", "value": "orally bioavailable"}, {"measurement": "relapse with parasites in the blood", "setting": "[5]", "value": "all mice relapsed"}, {"measurement": "suppression of parasitemia during treatment phase", "setting": "[5]", "value": "complete suppression"}]}, {"smiles": "Cl.NCCN(C(=O)c1ccc(Cl)cc1Cl)c1ccc(Br)cc1", "note": "[Compound 3, N-(2-Aminoethyl)-N-(4-bromophenyl)-2,4-dichlorobenzamide hydrochloride]", "values": [{"measurement": "fold enhancement of potency with respect to compound 1", "setting": "[1]", "value": 4, "unit": "fold"}]}, {"smiles": "Cl.NCCN(C(=O)c1ccc(Cl)cc1Cl)c1ccc([N+](=O)[O-])cc1", "note": "[Compound 9, N-(2-Aminoethyl)-2,4-dichloro-N-(4-nitrophenyl)benzamide hydrochloride]", "values": [{"measurement": "activity on T. brucei cells (in words)", "setting": "[1]", "value": "eliminated activity"}]}, {"smiles": "Cl.NCCN(C(=O)c1c(F)c(F)c(F)c(F)c1F)c1ccc(Cl)cc1", "note": "[Compound 41, N-(2-Aminoethyl)-N-(4-chlorophenyl)-2,3,4,5,6-pentafluorobenzamide hydrochloride]", "values": [{"measurement": "fold improvement in activity compared to 20", "setting": "[1]; vs 20", "value": 26, "unit": "fold"}]}, {"smiles": "CN(C)CCN(C(=O)c1ccc(Cl)cc1Cl)c1ccc(Cl)cc1", "note": "[Compound 47, 2,4-Dichloro-N-(4-chlorophenyl)-N-[2-(dimethylamino)ethyl] benzamide]", "values": [{"measurement": "activity on T. brucei cells (in words)", "setting": "[1]", "value": "eliminated anti-T. brucei activity"}]}, {"smiles": "Cc1ccccc1C(=O)N(CCN)c1ccc(Cl)cc1.Cl", "note": "[Compound 24, N-(2-Aminoethyl)-N-(4-chlorophenyl)-2-methylbenzamide hydrochloride]", "values": [{"measurement": "fold more active than 4-methyl derivative 25", "setting": "[1]; vs 25", "value": 14, "unit": "fold"}]}, {"smiles": "Cl.NCCN(C(=O)c1ccc(Cl)cc1Cl)c1ccc(Oc2cccc(Cl)c2)cc1", "note": "[Compound 17, N-(2-Aminoethyl)-2,4-dichloro-N-[4-(3-chlorophenoxy)phenyl] benzamide hydrochloride]", "values": [{"measurement": "fold enhancement of potency with respect to compound 1", "setting": "[1]", "value": 4, "unit": "fold"}]}, {"smiles": "Cl.NCCN(C(=O)c1ccc(F)cc1C(F)(F)F)c1ccc(OCc2ccc(Cl)cc2)cc1", "note": "[Compound 65, N-(2-Aminoethyl)-N-{4-[(4-chlorophenyl)methoxy]phenyl}-4-fluoro-2-(trifluoromethyl)benzamide hydrochloride]", "values": [{"measurement": "relapse with parasites in the blood", "setting": "[5]", "value": "all mice relapsed"}, {"measurement": "suppression of parasitemia during treatment phase", "setting": "[5]", "value": "partial suppression"}, {"measurement": "number of mice free of parasitemia/number of mice in the group", "setting": "[5]; day 35 post-infection, day 1 post-treatment", "value": "4/4"}, {"measurement": "number of mice free of parasitemia/number of mice in the group", "setting": "[5]; day 36 post-infection, day 2 post-treatment", "value": "4/4"}, {"measurement": "number of mice free of parasitemia/number of mice in the group", "setting": "[5]; day 37 post-infection, day 3 post-treatment", "value": "2/4"}, {"measurement": "number of mice free of parasitemia/number of mice in the group", "setting": "[5]; day 38 post-infection, day 4 post-treatment", "value": "1/4"}, {"measurement": "number of mice free of parasitemia/number of mice in the group", "setting": "[5]; day 39 post-infection, day 5 post-treatment", "value": "1/4"}, {"measurement": "number of mice free of parasitemia/number of mice in the group", "setting": "[5]; day 40 post-infection, day 6 post-treatment", "value": "1/4"}, {"measurement": "number of mice free of parasitemia/number of mice in the group", "setting": "[5]; day 41–42 post-infection, day 7–8 post-treatment", "value": "1/4"}, {"measurement": "number of mice free of parasitemia/number of mice in the group", "setting": "[5]; day 43–45 post-infection, day 9–11 post-treatment", "value": "1/4"}, {"measurement": "number of mice free of parasitemia/number of mice in the group", "setting": "[5]; day 46–49 post-infection, day 12–15 post-treatment", "value": "0/4"}, {"measurement": "activity on T. brucei cells (in words)", "setting": "[1]", "value": "single digit nanomolar EC50 values"}]}]}
